From patent publication US20180312473A1, “PHENAZINE DERIVATIVES AS ANTIMICROBIAL AGENTS” (priority 2015, published 2018)
≈ marks a conversion by molar mass, not a printed value. Where two headings read alike, the source gives them in different places.

Legend:
[1] = system: MRSA-2 planktonic cells and biofilms; assay: Calgary Biofilm Device (CBD) assay, MBC/MBEC; assay type: cell-based, Staphylococcus aureus; details: Staphylococcus aureus, MRSA
[2] = system: MRSE (S. epidermidis ATCC 35984) planktonic cells and biofilms; assay: Calgary Biofilm Device (CBD) assay, MBC/MBEC; assay type: cell-based, Staphylococcus epidermidis; details: Staphylococcus epidermidis; Table 8; read-out: MRSE 35984 MBC
P. aeruginosa (PAO1) = assay: MIC assay (broth microdilution, CLSI); assay type: cell-based; details: Pseudomonas aeruginosa, PAO1; read-out: PAO1 MIC
[3] = system: Enterococcus faecium (ATCC 700221), VRE; assay: MIC assay (broth microdilution, CLSI); assay type: cell-based
K. pneumoniae 13883 = assay: MIC assay (broth microdilution, CLSI); assay type: cell-based, Klebsiella pneumoniae; details: Klebsiella pneumoniae, 13883; read-out: K. pneumoniae 13883 MIC
A. baumannii 19606 = assay: MIC assay (broth microdilution, CLSI); assay type: cell-based, Acinetobacter baumannii; details: Acinetobacter baumannii, 19606; read-out: A. baumannii 19606 MIC
E. coli UAEC-1 = assay: MIC assay (broth microdilution, CLSI); assay type: cell-based; details: Escherichia coli, UAEC1; read-out: E. coli UAEC-1 MIC
in vitro = assay type: cell-based; details: human
Protocol: (§1) The cytotoxicities of select compounds of the invention against HeLa cells were determined. HeLa cytotoxicity was assessed using the LDH release assay described by CYTOTOX96 (Promega G1780). HeLa cells were grown in Dulbecco's Modified Eagle Medium (DMEM; Gibco) supplemented with 10% Fetal Bovine Serum (FBS) at 37° C. with 5% CO2. […] Triton X-100 (at 2% v/v) was used as the positive control for maximum lactate dehydrogenate (LDH) activity in this assay (e.g., complete cell death), while “medium only” lanes served as negative control lanes (e.g., no cell death). DMSO was used as the vehicle control. […] Finally, Stop Solution (50 μL) was added to the incubating plates, and the absorbance was measured at 490 nm.
(§2) HeLa cytotoxicity was assessed using the LDH release assay described by CYTOTOX96 (Promega G1780). HeLa cells were grown in Dulbecco's Modified Eagle Medium (DMEM; Gibco) supplemented with 10% Fetal Bovine Serum (FBS) at 37° C. with 5% CO2. […] Triton X-100 (at 2% v/v) was used as the positive control for maximum lactate dehydrogenate (LDH) activity in this assay (e.g., complete cell death), while “medium only” lanes served as negative control lanes (e.g., no cell death). DMSO was used as our vehicle control. […] Finally, Stop Solution (50 μL) was added to the incubating plates and the absorbance was measured at 490 nm. Results are from three independent experiments (FIG. 19)

[4] = system: Staphylococcus epidermidis (ATCC 12228); assay: MIC assay (broth microdilution, CLSI); assay type: cell-based; details: Staphylococcus epidermidis, ATCC12228
human red blood cells = assay: Hemolysis assay with red blood cells; details: human, 1 h, 200 μM, pH 7.2
Protocol: The hemolysis activities of select compounds of the invention were determined. […] The washing was repeated three times with the buffer. In 96-well plate, test compounds were added to the buffer from DMSO stocks. […] The plate was then incubated for 1 hour at 37° C. After incubation, the plate was centrifuged for 5 minutes at 3,500 rpm. Then 80 μL of the supernatant was transferred to another 96-well plate, and the optical density (OD) was read at 405 nm. DMSO served as the negative control (0% hemolysis), while Triton X served as the positive control (100% hemolysis). The percent of hemolysis was calculated as (OD405 of the compound−OD405 of DMSO)/(OD405 of Triton X−OD405 of the buffer).
The washing was repeated three times with the buffer. In 96-well plate, test compounds were added to the buffer from DMSO stocks. […] The plate was then incubated for 1 hour at 37° C. After incubation, the plate was centrifuged for 5 minutes at 3,500 rpm. Then 80 μL of the supernatant was transferred to another 96-well plate and the optical density (OD) was read at 405 nm. DMSO served as our negative control (0% hemolysis) while Triton X served as our positive control (100% hemolysis). The percent of hemolysis was calculated as (OD405 of the test compound−OD405 DMSO)/(OD405 Triton X−OD405 buffer) from three independent experiments.

[5] = system: M. tuberculosis H37Ra (ATCC 25177); assay: Mycobacterium tuberculosis MIC assay; assay type: cell-based; details: Table 7, read-out: MIC, M. tuberculosis H37Ra
Protocol: (§3) The culture was then diluted with fresh medium until an OD600 of 0.01 was reached. […] The final DMSO concentration was maintained at 0.5%. […] Three rows were reserved for each compound. […] OD600 absorbance was recorded using SPECTRAMAX M5 (Molecular Devices). Data obtained from three independent experiments were analyzed using Excel.
as §3, with “EXCEL.” for “Excel.”

[6] = system: MRSA-2 (methicillin-resistant Staphylococcus aureus clinical isolate); assay: MIC assay (broth microdilution, CLSI); assay type: cell-based; details: Staphylococcus aureus, MRSA, read-out: MIC, MRSA-2
[7] = system: methicillin-resistant S. aureus (MRSA) strains; assay: MIC assay, values summarised over MRSA strains; assay type: cell-based, Staphylococcus aureus
[8] = system: VRE (E. faecium ATCC 700221) planktonic cells and biofilms; assay: Calgary Biofilm Device (CBD) assay, MBC/MBEC; assay type: cell-based, Enterococcus faecium; details: Enterococcus; Table 8; c lowest concentration tested; read-out: VRE 700221 MBC
HeLa cells = assay: in vitro; assay type: cell-based; details: human, 24 h
Protocol: as §1, §2

MRSA BAA-44 = assay: MIC assay (broth microdilution, CLSI); details: Staphylococcus aureus, read-out: MIC, MRSA BAA-44
[9] = system: Staphylococcus epidermidis (ATCC 35984), MRSE; assay: MIC assay (broth microdilution, CLSI); assay type: cell-based; details: Staphylococcus epidermidis
[10] = Table 8, a/b 2-/4-fold range in independent experiments, read-out: MRSA-2 MBC
[11] = Enterococcus faecium, Table 2A, read-out: MIC, Enterococcus faecium (ATCC 700221)
[12] = Table 7, b lowest concentration tested, read-out: MIC, VRE 700221
[13] = Table 2A, read-out: MIC, Staphylococcus epidermidis (ATCC 12228)
[14] = Table 7, b lowest concentration tested, read-out: MIC, S. epidermidis 12228

Row | SMILES | MBC ([1]; Table 4, read-out: MBC, MRSA-2) [µM] | MBC [1, 10] [µM] | MBC [2] [µM] | MIC (P. aeruginosa (PAO1)) [µM] | MIC [3, 11] [µM] | MIC [3, 12] [µM] | MIC (K. pneumoniae 13883) [µM] | MIC (A. baumannii 19606) [µM] | MIC (E. coli UAEC-1) [µM] | IC50 at 24 h (in vitro) [µM] | MIC [4, 13] [µM] | MIC [4, 14] [µM] | % Hemolysis (200 μM) (human red blood cells) [%] | % Hemolysis at 200 μM (human red blood cells) [%] | MIC (MRSA BAA-44) [µM] | other results
1 | Cc1nc2c(I)cc(I)c(O)c2nc1C [Compound 28] | 93.8 (≈ 40 µg/mL) | 93.8 (≈ 40 µg/mL) | 23.5 (≈ 10 µg/mL) | > 100 | 6.25 (≈ 2.66 µg/mL) | 6.25 (≈ 2.66 µg/mL) | > 100 | > 100 | > 100 | > 100 | 1.56 to 3.13 (≈ 0.665 to 1.33 µg/mL) | 2.35 (≈ 1 µg/mL) | 1.2 | 1.2 |  | MIC ([5]; Mycobacterium tuberculosis): > 50 µM; MIC [5]: >50 µM
2 | Oc1c(Br)cc(Cl)c2nc3ccccc3nc12 [Compound 7, 2-Bromo-4-chloro-1-hydroxyphenazine] | 46.9 (≈ 14.5 µg/mL) | 46.9 (≈ 14.5 µg/mL) | 11.7 (≈ 3.62 µg/mL) |  | 6.25 (≈ 1.93 µg/mL) | 6.25 (≈ 1.93 µg/mL) |  |  |  | > 100 | 1.56 to 3.13 (≈ 0.483 to 0.969 µg/mL) | 2.35 (≈ 0.727 µg/mL) | ≤1 | ≤1 | 1.56 (≈ 0.483 µg/mL) | MIC ([6]; Table 2A): 1.56 µM (≈ 0.483 µg/mL); MIC ([6]; Table 7, a midpoint of 2-fold range, b lowest concentration tested): 1.56 µM (≈ 0.483 µg/mL); growth inhibition activity against at least one MRSA strain [7]: sub-micromolar; MBC [8]: 7.8 µM (≈ 2.41 µg/mL); melting point: 212 to 214 °C; IC50 (HeLa cells): > 100 µM; MIC ([9]; Table 2A, read-out: MIC, Staphylococcus epidermidis (ATCC 35984)): 1.56 µM (≈ 0.483 µg/mL); MIC ([9]; Table 7, read-out: MIC, MRSE 35984): 1.56 µM (≈ 0.483 µg/mL)
3 | Cc1nc2c(Br)cc(Br)c(O)c2nc1C [Compound 27] | 125 (≈ 41.5 µg/mL) | 125 (≈ 41.5 µg/mL) |  | > 100 | 25 (≈ 8.3 µg/mL) | 25 (≈ 8.3 µg/mL) | > 100 | > 100 | > 100 |  | 12.5 (≈ 4.15 µg/mL) | 12.5 (≈ 4.15 µg/mL) | ≤1 | ≤1 | 6.25 (≈ 2.07 µg/mL) | 
